Source: US20060141077A1, “Pest controlling composition and the use thereof” (ORGANOX AB, priority 2002, published 2006)

What was measured:
[1] = tested on: Aphis fabae; assay: 4-way olfactometer, direct response to chemical odour; type: in vivo; conditions: FIG. 1
[2] = tested on: Rhopalosiphum padi; assay: as above; type: in vivo; conditions: R. padi; visits to treatment arm vs control arms
Method: (§1) Responses of R. padi migrants to chemical odours were tested in a 4-way olfactometer (Pettersson, 1970), consisting of an enclosed Perspex arena (12 cm diameter) with a central chamber and four side arms. Air was drawn from the centre of the olfactometer using a water pump, establishing distinct airflow in the side arms. An odour field was established by introducing a chemical (released from a […] capillary tube, or a whole menthol crystal, weight: 0.14 g) into one of the side arms. A single adult apterous aphid was introduced into the olfactometer, and its position was recorded every 3 minutes for 30 minutes. The number of visits to the treatment arm was compared with the mean number of visits to the control arms using a paired t-test. Experiments were repeated 16-20 times (no. individual aphids tested), with the olfactometer turned through 90° between replicates to avoid positional bias. Olfactory responses to plants exposed to chemicals were done in a similar way, except that the odour sources consisted of whole plants enclosed in two-chamber cages attached directly to the olfactometer. In each olfactometer, one treated plant was compared with one untreated plant.

[3] = tested on: Cavariella aegopodi; assay: as above; type: in vivo; conditions: FIG. 1
[4] = tested on: several aphid species; assay: Repellency to aphids (conclusions); type: in vivo; conditions: conclusion statement
Method: as §1

[5] = tested on: Rhopalosiphum padi; assay: Olfactometer response to odour of barley plants exposed to chemicals; type: in vivo; conditions: treated plant vs untreated plant
Text: Exposure of barley plants to volatile chemicals was done in perspex ‘two-chamber cages’ (Pettersson et al. 1999) attached to a vacuum tank. Air was taken into the first chamber through a hole in the cage wall, passed into the second chamber and was then drawn out from the top of this cage to a vacuum tank before being vented outside the room. Plants were placed in the second chamber, and chemicals were released from microcapillary tubing which hung in the first chamber. Plants were exposed for 5 days, after which time they were removed and used in tests of aphid behaviour. Control plants grew in identical cages with empty microcapillary tubes. Responses of R. padi migrants to chemical odours were tested in a 4-way olfactometer (Pettersson, 1970), consisting of an enclosed Perspex arena (12 cm diameter) with a central chamber and four side arms. Air was drawn from the centre of the olfactometer using a water pump, establishing distinct airflow in the side arms. An odour field was established by introducing a chemical (released from a […] capillary tube, or a whole menthol crystal, weight: 0.14 g) into one of the side arms. A single adult apterous aphid was introduced into the olfactometer, and its position was recorded every 3 minutes for 30 minutes. The number of visits to the treatment arm was compared with the mean number of visits to the control arms using a paired t-test. […]

[6] = tested on: aphids; conditions: applied by spraying in cereal plots, pilot experiment; cited from earlier work
[7] = human adults; cited from earlier work
[8] = cited from earlier work
[9] = orally in rabbits; cited from earlier work
[10] = tested on: aphids; assay: Test of aphid settling on exposed barley plants; type: in vivo; conditions: barley exposed for 3, 4 and 6 days; FIG. 3
Text: Exposure of barley plants to volatile chemicals was done in perspex ‘two-chamber cages’ (Pettersson et al. 1999) attached to a vacuum tank. Air was taken into the first chamber through a hole in the cage wall, passed into the second chamber and was then drawn out from the top of this cage to a vacuum tank before being vented outside the room. Plants were placed in the second chamber, and chemicals were released from microcapillary tubing which hung in the first chamber. […] Control plants grew in identical cages with empty microcapillary tubes. A 50 ml polystyrene tube was placed over the youngest fully developed leaf. The upper end of the tube was covered with a net and the lower end with a foam plastic plug with a slit for the leaf. To minimise mechanical damage to the test plant, a stick was used to support the tube. Ten mixed-instar apterous aphids were placed in the tube and after 2 hours the number of aphids settled (not walking) on the leaf was recorded. Occasionally aphids were able to escape from the tubes, but the results were expressed as a proportion of the number of aphids originally introduced, in case the propensity of an aphid to escape from the tube was influenced by the experimental treatment of the plant. The number of replicates (tubes) varied between experiments, but there were always equal numbers of control and treatment plants. […]

Structure (SMILES)	response to chemical odour in the olfactometer [1]	response to chemical odour in the olfactometer [2]	response to chemical odour in the olfactometer [3]	repellency for several aphid species [4]	response to odour of plants exposed to the chemical [5]	aphid settling in the field [6]	average lethal dose [7] [mL]	solubility in water [8]	LD50 [9] [mg/kg]	aphid settling on plants exposed to the substance [10]
CC1CCC(C(C)C)C(O)C1 (stereo not shown) [menthol, 5-methyl-2-(1-methylethyl)-cyclohexanol]	strongly repelled	strongly repelled	strongly repelled	strong repellents	repelled	–	–	–	–	–
COC(=O)c1ccccc1O [methyl salicylate, 2-hydroxybenzoic acid methyl ester]	–	–	–	strong repellents	–	significantly reduced aphid settling	30	slightly soluble	2800	–
CC12CCC(CC1)C(C)(C)O2 [1,8-cineole, 1,3,3-trimethyl-2-oxabicyclo[2.2.2.]octane]	–	did not respond	–	–	less attractive	–	–	–	–	settled significantly less
